{"source": "patent US9932300B2", "about": "“N,N′-diarylurea compounds and N,N′-diarylthiourea compounds as inhibitors of translation initiation” (President and Fellows of Harvard College, priority 2009, dated 2018)", "key": {"[1]": {"system": "eIF2-GTP-Met-tRNAi ternary complex", "assay": "Ternary complex activity (cell line not stated)", "format": "cell-based"}, "[2]": {"system": "eIF2-GTP-Met-tRNAi ternary complex", "assay": "Ternary complex assay (dual luciferase, firefly/renilla ratio) in stable KLN-tTA/pBISA-DL(ATF-4) cells; HTS and hit confirmation", "format": "cell-based, mouse", "conditions": "for Relative F-luc/R-luc Ratio (+/− SEM): anti-cancer agents at 20 μM, ternary complex assay; for Induction of F-luc/R-luc ratio after knockdown of HRI: siRNA against HRI"}, "[3]": {"system": "eIF2-GTP-Met-tRNAi ternary complex", "assay": "Ternary complex / ATF-4 dual luciferase assay in human cancer cell lines co-transfected with tTA and pBISA-DL(ATF-4) (CRL-2351, PC-3, CRL-2813)", "format": "cell-based", "conditions": "CRL-2351 cell line", "description": "FIGS. 8A-8D depict that N,N′-diarylureas reduce the availability of the eIF2-GTP-Met-tRNAi ternary complex in human cancer cells. A-C) PC-3, CR-L2351, and CRL-2813 human cancer cell lines were co-transfected with pBISA-DL^(ATF-4) and ptTA plasmids. One day post-transfection, the cells were treated with the indicated concentrations of N,N′-diarylureas. Firefly/renilla ratio was determined by DLR assay 8 hours after treatment. D) PC-3, CR-L2351, and CRL-2813 human cancer cell lines were treated with the indicated concentrations of N,N′-diarylureas four 8 hours, and expression of endogenous CHOP mRNA was determined by real-time PCR.\n(§1) For example, reducing amount of the ternary complex increases translation of ATF-4, which results in elevated expression of CHOP mRNA and protein. Therefore, expression of endogenous CHOP mRNA and CHOP protein in KLN-tTA/pBISA-DL^(ATF-4) cells were utilized as secondary assays to validate N,N′-diarylurea compounds as modifiers of the eIF2⋅GTP⋅Met-tRNAi ternary complex. […] To rule out the possibility that the activity of N,N′-diarylurea compounds was confined to a single cell type, the effects of these compounds on the ternary complex assay and the expression of CHOP mRNA was assayed in CRL-2351, PC-3, CRL-2813 human breast, prostate, and melanoma cancer cell lines respectively. For the reporter gene assay, the three human cell lines were co-transfected with tTA expression vector and the pBISA-DL^(ATF-4) dual luciferase expression vector shown in FIG. 6. […] The expression of CHOP mRNA was assayed by real time PCR in the same cell lines treated with 5 or 20 μM of each compound. […]\nStable and transient transfection: Cells were seeded at the density of 10^5 in 60-mm (stable transfection) or 10^4 cells per well of 96-well plate (transient transfection) plates and transfected one day later using the Qiagen Transfectamine transfection kit. For selection of stable cell lines, transfected cells were transferred to 100-mm plates and selected with appropriate antibiotics.\nDual luciferase assay: Cells or minced tumors expressing firefly and renilla luciferases were lysed and the extracts assayed with a glow type dual luciferase assay kit, per manufacturer's instruction (Promega Inc., Madison, Wis.)."}, "[4]": {"assay": "Solubility in solvents during purification", "format": "physicochemical", "conditions": "crude product", "description": "Because it could not be purified, this compound was removed from the structure-activity relationship (SAR) study.\nAs another non-limiting example, 3,4-dichlorophenylisocyanate (250 mg, 1.330 mmol) and 2-amino-4-hydroxy-6-methylpyrimidine (166 mg, 1.330 mmol) were used following the general procedure E to synthesize 28."}, "HRI": {"system": "HRI", "assay": "Activation of HRI in cell-free lysates (phosphorylation of eIF2α, Western blot)", "format": "biochemical, rabbit and human", "conditions": "lysates of CRL-2813 cells or heme-supplemented rabbit reticulocytes, 30 minutes at 37° C.", "description": "FIGS. 14A and 14B depict that N,N′-diarylurea compounds activate HRI in cell free lysates. A and B) Heme supplemented rabbit reticulocyte (a) or in-house prepared human melanoma cancer cell lysates (b) were incubated with the indicated concentration of compound 1781 for 30 minutes at 37° C. and phosphorylation of eIF2α was determined by Western blot analysis.\nCompound #1781 was added to lysates of CRL-2813 cells or heme-supplemented rabbit reticulocytes and phosphorylation of eIF2α by Western blot was determined."}, "[5]": {"assay": "In vivo toxicity in female nude mice (body weight, food consumption, necropsy)", "description": "Five female nude mice each were treated with 200 mg/kg, 100 mg/kg #1781 in 15 μl DMSO or 15 μl DMSO daily for seven days. Mice were observed daily for signs of toxicity and weighed every other day for total of 15 days and then necropsy was performed. The average body of each group is plotted against the time.\nTo study toxicity effects, mice were treated with various doses of compound #1781 or vehicle."}, "CHOP": {"system": "CHOP", "assay": "Expression of endogenous CHOP mRNA (real time PCR) and CHOP protein (Western blot)", "format": "cell-based, mouse and human", "conditions": "siRNA against HRI", "excerpt": "as §1\nReal time PCR: For real time PCR, total RNA was extracted with TaqMan Gene Expression Cells-to-Ct™ Kit (Applied Biosystems, Branchburg, N.J.) according to manufacturer's protocol. […] To calibrate the results, all the transcripts quantities were normalized to 18S rRNA (was 18S ribosomal RNA-like mRNA in mouse). […]"}, "[6]": {"system": "eIF2-GTP-Met-tRNAi ternary complex", "assay": "Ternary complex assay (dual luciferase, firefly/renilla ratio) in stable KLN-tTA/pBISA-DL(ATF-4) cells; HTS and hit confirmation", "format": "cell-based, mouse", "conditions": "KLN-tTA/pBISA-DL(ATF-4) colonies, assay validation"}}, "note": "“Also recorded” adds a separate entry of the source. Peptide text beside a SMILES is read from it."}
{"smiles": "CN(C(=O)Nc1cc(C(F)(F)F)cc(C(F)(F)F)c1)c1cc(C(F)(F)F)cc(C(F)(F)F)c1", "values": [{"measurement": "Maximum effect (Emax, fold over control)", "setting": "[1]", "result": 13, "unit": "fold over control"}, {"measurement": "Maximum effective dose Cmax", "setting": "[1]", "result": 10, "unit": "µM"}]}
{"smiles": "COc1cc(N(C)C(=O)Nc2cc(C(F)(F)F)cc(C(F)(F)F)c2)ccc1C", "values": [{"measurement": "Maximum effect (Emax, fold over control)", "setting": "[1]", "result": "Inactive"}]}
{"smiles": "Cc1ccc(N(C)C(=O)Nc2cc(C(F)(F)F)cc(C(F)(F)F)c2)cc1O", "values": [{"measurement": "Maximum effect (Emax, fold over control)", "setting": "[1]", "result": 8.5, "unit": "fold over control"}, {"measurement": "Maximum effective dose Cmax", "setting": "[1]", "result": 80, "unit": "µM"}]}
{"smiles": "N=C(N)NC(=O)c1nc(Cl)c(N)nc1N", "note": "[Amiloride]", "values": [{"measurement": "Relative F-luc/R-luc Ratio (+/− SEM)", "setting": "[2]", "result": "1.1 + 0.3"}]}
{"smiles": "Clc1ccccc1C(c1ccccc1)(c1ccccc1)n1ccnc1", "note": "[CLT, clotrimazole, reference compound]", "values": [{"measurement": "Relative F-luc/R-luc Ratio (+/− SEM)", "setting": "[2]", "result": "6 + 1.1"}]}
{"smiles": "CC[C@@]1(O)C(=O)OCc2c1cc1n(c2=O)Cc2cc3ccccc3nc2-1", "note": "[Camptothecin]", "values": [{"measurement": "Relative F-luc/R-luc Ratio (+/− SEM)", "setting": "[2]", "result": "1.3 + 0.3"}]}
{"smiles": "COc1cc2c(c(OC)c1OC)-c1ccc(OC)c(=O)cc1[C@@H](NC(C)=O)CC2", "note": "[Colchicine]", "values": [{"measurement": "Relative F-luc/R-luc Ratio (+/− SEM)", "setting": "[2]", "result": "1.2 + 0.3"}]}
{"smiles": "CC(C)Cn1c(=O)n(C)c(=O)c2[nH]cnc21", "note": "[Compound 3-isobutyl-1-methylxanthine]", "values": [{"measurement": "Relative F-luc/R-luc Ratio (+/− SEM)", "setting": "[2]", "result": "1.1 + 0.2"}]}
{"smiles": "O=c1[nH]cc(F)c(=O)[nH]1", "note": "[Compound 5-fluorouracil, 5-fluorouracil]", "values": [{"measurement": "Relative F-luc/R-luc Ratio (+/− SEM)", "setting": "[2]", "result": "1 + 0.2"}]}
{"smiles": "Cc1ccc(NC(=O)Nc2ccc(Cl)c(C(F)(F)F)c2)cc1OCCN1CCOCC1", "note": "[Compound 16, 3-[4-chloro-3-(trifluoromethyl)phenyl]-1-{4-methyl-3-[2-(morpholin-4-yl)ethoxy]phenyl}urea]", "values": [{"measurement": "ATF-4 Cmax (concentration corresponding to the maximal activity)", "setting": "[3]", "result": 10, "unit": "µM"}]}
{"smiles": "Cc1ccc(NC(=O)Nc2cc(C(F)(F)F)cc(C(F)(F)F)c2)cc1OCCN1CCOCC1", "note": "[Compound 17, 3-[3,5-bis(trifluoromethyl)phenyl]-1-{4-methyl-3-[2-(morpholin-4-yl)ethoxy]phenyl}urea]", "values": [{"measurement": "ATF-4 Cmax (concentration corresponding to the maximal activity)", "setting": "[3]", "result": 10, "unit": "µM"}]}
{"smiles": "Cc1ccc(NC(=O)Nc2ccc(Cl)c(Cl)c2)cc1OCCN1CCNCC1", "note": "[Compound 23, 4-[2-(5-{[(3,4-dichlorophenyl)carbamoyl]amino}-2-methylphenoxy)ethyl]piperazine-1,4-diium dichloride]", "values": [{"measurement": "ATF-4 Cmax (concentration corresponding to the maximal activity)", "setting": "[3]", "result": 10, "unit": "µM"}]}
{"smiles": "Cc1ccc(NC(=O)Nc2cc(C(F)(F)F)cc(C(F)(F)F)c2)cc1OCCN1CCNCC1", "note": "[Compound 25, 4-{2-[5-({[3,5-bis(trifluoromethyl)phenyl]carbamoyl}amino)-2-methylphenoxy]ethyl}piperazine-1,4-diium dichloride]", "values": [{"measurement": "ATF-4 Cmax (concentration corresponding to the maximal activity)", "setting": "[3]", "result": 10, "unit": "µM"}]}
{"smiles": "O=C(Nc1ccc(Cl)c(Cl)c1)Nc1ncccc1O", "note": "[Compound 26]", "values": [{"measurement": "ATF-4 Cmax (concentration corresponding to the maximal activity)", "setting": "[3]", "result": 40, "unit": "µM"}]}
{"smiles": "O=C(Nc1ccc(Cl)c(C(F)(F)F)c1)Nc1ncccc1O", "note": "[Compound 27]", "values": [{"measurement": "ATF-4 Cmax (concentration corresponding to the maximal activity)", "setting": "[3]", "result": 40, "unit": "µM"}]}
{"smiles": "O=C(Nc1cc(C(F)(F)F)cc(C(F)(F)F)c1)Nc1ncccc1O", "note": "[Compound 28]", "values": [{"measurement": "ATF-4 Cmax (concentration corresponding to the maximal activity)", "setting": "[3]", "result": 40, "unit": "µM"}, {"measurement": "Solubility in solvents", "setting": "[4]", "result": "not soluble in any solvent; also recorded: wasn't soluble in any solvent tested"}]}
{"smiles": "O=C(Nc1ccc(Cl)c(Cl)c1)Nc1ccc2nnsc2c1", "note": "[Compound 1781]", "values": [{"measurement": "Induction of F-luc/R-luc ratio after knockdown of HRI", "setting": "[2]", "result": "significantly abrogated"}, {"measurement": "Induction of F-luc/R-luc ratio after knockdown of HRI", "setting": "[2]; listed as 1181", "result": "almost completely abrogated"}, {"measurement": "Induction of F-luc/R-luc ratio after knockdown of PKR, PERK or GCN2", "setting": "[2]; siRNA against PKR, PERK, GCN2, individually or combined", "result": "no effect"}, {"measurement": "Phosphorylation of eIF2α in cell lysates", "setting": "HRI", "result": "caused phosphorylation of eIF2α in cell lysates in a dose dependent manner"}, {"measurement": "Apparent in vivo toxicity", "setting": "[5]; 200 mg/kg or 100 mg/kg daily for seven days, female nude mice, observed 15 days", "result": "no apparent in vivo toxicity"}, {"measurement": "Effect on weight gain or food consumption", "setting": "[5]; seven consecutive day administration, up to 200 mg/kg, mice", "result": "no adverse effect on weight gain or food consumption"}, {"measurement": "Induction of CHOP mRNA after knockdown of HRI", "setting": "CHOP", "result": "abrogated induction of CHOP mRNA"}]}
{"smiles": "COc1ccc([C@@H]2Sc3ccccc3N(CCN(C)C)C(=O)[C@@H]2OC(C)=O)cc1", "note": "[Dilthiazem]", "values": [{"measurement": "Relative F-luc/R-luc Ratio (+/− SEM)", "setting": "[2]", "result": "1.4 + 0.4"}]}
{"smiles": "CC(=O)O.NCC(=O)N[C@@H](Cc1c[nH]cn1)C(=O)O", "note": "[Glycyl-1-histidyl acetate] (H-Gly-His-OH)", "values": [{"measurement": "Relative F-luc/R-luc Ratio (+/− SEM)", "setting": "[2]", "result": "1 + 0.1"}]}
{"smiles": "CO[C@@]12[C@H](COC(N)=O)C3=C(C(=O)C(C)=C(N)C3=O)N1C[C@@H]1N[C@@H]12", "note": "[Mitomycin C]", "values": [{"measurement": "Relative F-luc/R-luc Ratio (+/− SEM)", "setting": "[2]", "result": "0.9 + 0.3"}]}
{"smiles": "C=C1[C@@H](O)[C@@H]2O[C@]3(CC[C@H](/C=C/[C@@H](C)[C@@H]4CC(C)=C[C@@]5(O[C@H](C[C@@](C)(O)C(=O)O)CC[C@H]5O)O4)O3)CC[C@H]2O[C@@H]1[C@@H](O)C[C@H](C)[C@H]1O[C@@]2(CCCCO2)CC[C@H]1C", "note": "[Okadaic acid]", "values": [{"measurement": "Relative F-luc/R-luc Ratio (+/− SEM)", "setting": "[2]", "result": "1 + 0.3"}]}
{"smiles": "CCCCCCCCCC(=O)NC(CN1CCOCC1)C(O)c1ccccc1", "note": "(stereo not drawn) [Threo-1-phenyl]", "values": [{"measurement": "Relative F-luc/R-luc Ratio (+/− SEM)", "setting": "[2]", "result": "1.5 + 0.4"}]}
{"smiles": "COc1cc([C@@H]2c3cc4c(cc3[C@@H](O[C@@H]3O[C@@H]5CO[C@@H](C)O[C@H]5[C@H](O)[C@H]3O)[C@H]3COC(=O)[C@H]23)OCO4)cc(OC)c1O", "note": "[etoposite, reference compound]", "values": [{"measurement": "Relative F-luc/R-luc Ratio (+/− SEM)", "setting": "[2]", "result": "1 + 0.2"}, {"measurement": "Effect on firefly/renilla luciferase ratio", "setting": "[6]", "result": "no effect"}]}
